Holding throughout (test): relative viability (nuclei count vs DMSO), 5 days (fraction); higher = more cells survive
Compound in the assay “DM3189 + Trametinib”: C1CN(CCN1)C2=CC=C(C=C2)C3=CN4C(=C(C=N4)C5=CC=NC6=CC=CC=C56)N=C3 [DM3189] + CC(=O)Nc1cccc(-n2c(=O)n(C3CC3)c(=O)c3c(Nc4ccc(I)cc4F)n(C)c(=O)c(C)c32)c1 [Trametinib] (partner 0.02 µM)
The gist of the method: (§1)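 Cells from lung cancer lines were seeded into 1536-well plates and, one day later, dosed by pin tool. Treatments were either a single drug or a fixed dose of an anchor drug with five library-drug doses (not always all listed) in √10 steps. After 5 days, nuclei were stained in a one-step fixation (final 0.05% Triton X-100, 1% formaldehyde, 1 ug/ml Hoechst) and counted on 4× images, and relative viability is the treated-to-vehicle nuclei ratio, as the median of duplicate plates.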

Compound in the assay “DM3189 + Navitoclax”: C1CN(CCN1)C2=CC=C(C=C2)C3=CN4C(=C(C=N4)C5=CC=NC6=CC=CC=C56)N=C3 [DM3189] + CC1(C)CCC(c2ccc(Cl)cc2)=C(CN2CCN(c3ccc(C(=O)NS(=O)(=O)c4ccc(N[C@H](CCN5CCOCC5)CSc5ccccc5)c(S(=O)(=O)C(F)(F)F)c4)cc3)CC2)C1 [Navitoclax] (partner 0.5 µM)
The gist of the method:
as §1

Compound in the assay “DM3189 + Foretinib”: C1CN(CCN1)C2=CC=C(C=C2)C3=CN4C(=C(C=N4)C5=CC=NC6=CC=CC=C56)N=C3 [DM3189] + COc1cc2c(Oc3ccc(NC(=O)C4(C(=O)Nc5ccc(F)cc5)CC4)cc3F)ccnc2cc1OCCCN1CCOCC1 [Foretinib] (partner 0.25 µM)
The gist of the method: as §1

Compound in the assay “DM3189 + Lapatinib”: C1CN(CCN1)C2=CC=C(C=C2)C3=CN4C(=C(C=N4)C5=CC=NC6=CC=CC=C56)N=C3 [DM3189] + CS(=O)(=O)CCNCc1ccc(-c2ccc3ncnc(Nc4ccc(OCc5cccc(F)c5)c(Cl)c4)c3c2)o1 [Lapatinib] (partner 2 µM)
Summed up: as §1

Compound in the assay “DM3189 + Dasatinib”: C1CN(CCN1)C2=CC=C(C=C2)C3=CN4C(=C(C=N4)C5=CC=NC6=CC=CC=C56)N=C3 [DM3189] + Cc1nc(Nc2ncc(C(=O)Nc3c(C)cccc3Cl)s2)cc(N2CCN(CCO)CC2)n1 [Dasatinib] (partner 0.075 µM)
The gist of the method: as §1

Turning to 201T, the relative viability was determined as 0.729 in the assay with DM3189 + Trametinib (first compound 0.08 µM); 0.743 with DM3189 + Trametinib (first compound 0.253 µM); 0.728 in the assay with DM3189 + Trametinib (first compound 0.8 µM); 0.734 with DM3189 + Trametinib (first compound 2.53 µM); 1.17 in the assay with DM3189 + Navitoclax (first compound 0.08 µM); 1.21 with DM3189 + Navitoclax (first compound 0.253 µM). For the same cell line, the relative viability in the assay with DM3189 + Navitoclax (first compound 0.8 µM) was 1.18; in the assay with DM3189 + Navitoclax (first compound 2.53 µM) it was 1.23; with DM3189 + Foretinib (first compound 0.08 µM) it was 1.01; with DM3189 + Foretinib (first compound 0.253 µM), 1.03; with DM3189 + Foretinib (first compound 0.8 µM) it was 0.73; with DM3189 + Foretinib (first compound 2.53 µM) it was 1.27. Further, the relative viability was 1.06 in the assay with DM3189 + Lapatinib (first compound 0.08 µM); 1.03 in the assay with DM3189 + Lapatinib (first compound 0.253 µM); 0.998 with DM3189 + Lapatinib (first compound 0.8 µM); 1.03 with DM3189 + Lapatinib (first compound 2.53 µM); 0.589 with DM3189 + Dasatinib (first compound 0.08 µM); 0.543 with DM3189 + Dasatinib (first compound 0.253 µM). For the same cell line, the figures for the relative viability in the assay with DM3189 + Dasatinib (first compound 0.8 µM) and in the assay with DM3189 + Dasatinib (first compound 2.53 µM) were 0.385 and 0.557, respectively.

As for A-427, the relative viability in the assay with DM3189 + Trametinib (first compound 0.08 µM) was 0.865; in the assay with DM3189 + Trametinib (first compound 0.253 µM), 0.736; with DM3189 + Trametinib (first compound 0.8 µM) it was 0.638; with DM3189 + Trametinib (first compound 2.53 µM), 0.819; with DM3189 + Navitoclax (first compound 0.08 µM), 0.937; with DM3189 + Navitoclax (first compound 0.253 µM) it was 0.936. For the same cell line, the relative viability with DM3189 + Navitoclax (first compound 0.8 µM) was determined as 0.893; in the assay with DM3189 + Navitoclax (first compound 2.53 µM), 1.13; with DM3189 + Foretinib (first compound 0.08 µM) it was 1.09; with DM3189 + Foretinib (first compound 0.253 µM) it was 1.23; with DM3189 + Foretinib (first compound 0.8 µM) it was 1.04; with DM3189 + Foretinib (first compound 2.53 µM), 1.22. Moreover, the relative viability amounted to 1.08 with DM3189 + Lapatinib (first compound 0.08 µM); 1.03 with DM3189 + Lapatinib (first compound 0.253 µM); 0.983 in the assay with DM3189 + Lapatinib (first compound 0.8 µM); 0.929 with DM3189 + Lapatinib (first compound 2.53 µM); 0.765 with DM3189 + Dasatinib (first compound 0.08 µM); 0.78 with DM3189 + Dasatinib (first compound 0.253 µM). Moreover, the values for the relative viability with DM3189 + Dasatinib (first compound 0.8 µM) and in the assay with DM3189 + Dasatinib (first compound 2.53 µM) were 0.684 and 0.732, respectively.

Take ABC-1: the relative viability with DM3189 + Foretinib (first compound 0.08 µM) is 1.14; in the assay with DM3189 + Foretinib (first compound 0.253 µM) it was 1.18; in the assay with DM3189 + Foretinib (first compound 0.8 µM), 1.08; with DM3189 + Foretinib (first compound 2.53 µM), 0.906; with DM3189 + Lapatinib (first compound 0.08 µM), 1.3; with DM3189 + Lapatinib (first compound 0.253 µM), 1.06. Further, the relative viability is 0.931 in the assay with DM3189 + Lapatinib (first compound 2.53 µM); 0.607 with DM3189 + Dasatinib (first compound 0.08 µM); 0.559 in the assay with DM3189 + Dasatinib (first compound 0.253 µM); 0.448 in the assay with DM3189 + Dasatinib (first compound 0.8 µM); 0.423 with DM3189 + Dasatinib (first compound 2.53 µM).

Regarding BEN, the relative viability is 0.982 in the assay with DM3189 + Trametinib (first compound 0.08 µM); 1.01 in the assay with DM3189 + Trametinib (first compound 0.253 µM); 1.11 with DM3189 + Trametinib (first compound 0.8 µM); 1.21 with DM3189 + Trametinib (first compound 2.53 µM); 0.448 in the assay with DM3189 + Navitoclax (first compound 0.08 µM); 0.0733 in the assay with DM3189 + Navitoclax (first compound 0.253 µM). For the same cell line, the relative viability with DM3189 + Navitoclax (first compound 0.8 µM) turned out to be 0.0662; in the assay with DM3189 + Navitoclax (first compound 2.53 µM), 0.0697; in the assay with DM3189 + Foretinib (first compound 0.08 µM) it was 0.79; with DM3189 + Foretinib (first compound 0.253 µM), 0.582; in the assay with DM3189 + Foretinib (first compound 0.8 µM), 0.533; with DM3189 + Foretinib (first compound 2.53 µM), 0.734. The relative viability in the assay with DM3189 + Lapatinib (first compound 0.08 µM) came to 0.707; with DM3189 + Lapatinib (first compound 0.253 µM) it was 0.699; in the assay with DM3189 + Lapatinib (first compound 0.8 µM), 0.703; in the assay with DM3189 + Lapatinib (first compound 2.53 µM) it was 0.708; in the assay with DM3189 + Dasatinib (first compound 0.08 µM) it was 0.314; with DM3189 + Dasatinib (first compound 0.253 µM), 0.295. For the same cell line, the relative viability was 0.319 with DM3189 + Dasatinib (first compound 0.8 µM) and 0.33 with DM3189 + Dasatinib (first compound 2.53 µM).

As for CAL-12T, the relative viability amounted to 0.405 with DM3189 + Trametinib (first compound 0.08 µM); 0.339 in the assay with DM3189 + Trametinib (first compound 0.253 µM); 0.384 in the assay with DM3189 + Trametinib (first compound 0.8 µM); 0.488 with DM3189 + Trametinib (first compound 2.53 µM); 1.16 with DM3189 + Navitoclax (first compound 0.08 µM); 1.09 with DM3189 + Navitoclax (first compound 0.253 µM). The relative viability with DM3189 + Navitoclax (first compound 0.8 µM) is 1.25; with DM3189 + Navitoclax (first compound 2.53 µM) it was 1.35; with DM3189 + Foretinib (first compound 0.08 µM), 1.2; with DM3189 + Foretinib (first compound 0.253 µM) it was 1.07; with DM3189 + Foretinib (first compound 0.8 µM), 1.13; with DM3189 + Foretinib (first compound 2.53 µM), 1.12. Moreover, the relative viability in the assay with DM3189 + Lapatinib (first compound 0.08 µM) worked out at 0.623; with DM3189 + Lapatinib (first compound 0.253 µM), 0.675; with DM3189 + Lapatinib (first compound 0.8 µM), 0.616; with DM3189 + Lapatinib (first compound 2.53 µM), 0.947; in the assay with DM3189 + Dasatinib (first compound 0.08 µM), 0.546; with DM3189 + Dasatinib (first compound 0.253 µM) it was 0.469. Moreover, the relative viability is 0.487 with DM3189 + Dasatinib (first compound 0.8 µM) and 0.571 with DM3189 + Dasatinib (first compound 2.53 µM).

With COR-L23, the relative viability was found to be 0.707 with DM3189 + Trametinib (first compound 0.08 µM); 0.507 with DM3189 + Trametinib (first compound 0.253 µM); 0.529 with DM3189 + Trametinib (first compound 0.8 µM); 0.549 in the assay with DM3189 + Trametinib (first compound 2.53 µM); 1.09 with DM3189 + Navitoclax (first compound 0.08 µM); 0.961 with DM3189 + Navitoclax (first compound 0.253 µM). The relative viability with DM3189 + Navitoclax (first compound 0.8 µM) was 0.893; in the assay with DM3189 + Navitoclax (first compound 2.53 µM), 1; in the assay with DM3189 + Foretinib (first compound 0.08 µM), 1.12; in the assay with DM3189 + Foretinib (first compound 0.253 µM), 0.844; in the assay with DM3189 + Foretinib (first compound 0.8 µM), 0.828; in the assay with DM3189 + Foretinib (first compound 2.53 µM), 0.993. For the same cell line, the relative viability with DM3189 + Lapatinib (first compound 0.08 µM) turned out to be 1.08; with DM3189 + Lapatinib (first compound 0.253 µM), 0.962; with DM3189 + Lapatinib (first compound 0.8 µM), 0.514; with DM3189 + Lapatinib (first compound 2.53 µM), 0.743; in the assay with DM3189 + Dasatinib (first compound 0.08 µM), 0.543; with DM3189 + Dasatinib (first compound 0.253 µM), 0.525. Besides, the relative viability with DM3189 + Dasatinib (first compound 0.8 µM) was determined as 0.458; in the assay with DM3189 + Dasatinib (first compound 2.53 µM), 0.525.

Regarding COR-L 105, the relative viability with DM3189 + Trametinib (first compound 0.08 µM) amounted to 0.467; in the assay with DM3189 + Trametinib (first compound 0.253 µM) it was 0.488; with DM3189 + Trametinib (first compound 0.8 µM), 0.471; in the assay with DM3189 + Trametinib (first compound 2.53 µM) it was 0.504; in the assay with DM3189 + Navitoclax (first compound 0.08 µM) it was 0.861; in the assay with DM3189 + Navitoclax (first compound 0.253 µM) it was 0.675. Further, the relative viability in the assay with DM3189 + Navitoclax (first compound 0.8 µM) was found to be 0.729; with DM3189 + Navitoclax (first compound 2.53 µM), 0.816; with DM3189 + Foretinib (first compound 0.08 µM) it was 1.22; in the assay with DM3189 + Foretinib (first compound 0.253 µM), 1.23; with DM3189 + Foretinib (first compound 0.8 µM), 1.06; with DM3189 + Foretinib (first compound 2.53 µM), 1.17. The relative viability is 0.432 with DM3189 + Lapatinib (first compound 0.08 µM); 0.362 with DM3189 + Lapatinib (first compound 0.253 µM); 0.312 in the assay with DM3189 + Lapatinib (first compound 0.8 µM); 0.281 with DM3189 + Lapatinib (first compound 2.53 µM); 0.427 with DM3189 + Dasatinib (first compound 0.08 µM); 0.449 in the assay with DM3189 + Dasatinib (first compound 0.253 µM). For the same cell line, the relative viability was 0.348 in the assay with DM3189 + Dasatinib (first compound 0.8 µM) and 0.327 with DM3189 + Dasatinib (first compound 2.53 µM).

Take ChaGo-K-1: the relative viability stood at 0.937 in the assay with DM3189 + Trametinib (first compound 0.08 µM); 0.876 in the assay with DM3189 + Trametinib (first compound 0.253 µM); 0.919 with DM3189 + Trametinib (first compound 0.8 µM); 0.936 in the assay with DM3189 + Trametinib (first compound 2.53 µM); 1.22 with DM3189 + Navitoclax (first compound 0.08 µM); 0.971 with DM3189 + Navitoclax (first compound 0.253 µM). In addition, the relative viability with DM3189 + Navitoclax (first compound 0.8 µM) came out at 1.1; in the assay with DM3189 + Navitoclax (first compound 2.53 µM), 0.825; with DM3189 + Foretinib (first compound 0.08 µM), 1.07; in the assay with DM3189 + Foretinib (first compound 0.253 µM), 0.903; with DM3189 + Foretinib (first compound 0.8 µM) it was 0.858; in the assay with DM3189 + Foretinib (first compound 2.53 µM), 0.976. In addition, the relative viability amounted to 0.734 with DM3189 + Dasatinib (first compound 0.08 µM), 0.563 with DM3189 + Dasatinib (first compound 0.253 µM), 0.561 in the assay with DM3189 + Dasatinib (first compound 0.8 µM) and 0.535 with DM3189 + Dasatinib (first compound 2.53 µM).

Source of the values: the supplement of paper PMC10307832.
